According to patent US20100249175A1, “Dicationic compounds which selectively recognize G-quadruplex DNA” (priority 2005, published 2010):
pIC50: −log10 of the molar value.

Experiments:
[1] = tested on: Trypanosoma brucei rhodesiense (T. b. r.); assay: In vitro antiprotozoal activity against T. b. r.; format: cell-based
Method: In vitro antiprotozoal activities were measured following established protocols. […] E., et al., Bioorg.

[2] = tested on: Tetrahymena telomere, d[(T2G4)4] (SEQ ID NO: 4); assay: CD titration with Tetrahymena telomere; format: binding; details: HEPES buffer containing 50 mM KCl
Text: (§1) The oligonucleotides d[AG3(T2AG3)3] (SEQ ID NO: 1), d[AG3TG4AG3TG4A] (SEQ ID NO: 2), d[G4(T4G4)3] (SEQ ID NO: 3), d[(T2G4)4] (SEQ ID NO: 4), d[(GC)7] (SEQ ID NO: 5), d[[…]] (SEQ ID NO: 6), d[G2T2G2TGTG2T2G2] (SEQ ID NO: 7), d[[…]] (SEQ ID NO: 8), d[[…]] (SEQ ID NO: 9), d[[…]] (SEQ ID NO: 10), d[[…]] (SEQ ID NO: 11), d[TTAGGGT] (SEQ ID NO: 12), and d[TGGGGT] (SEQ ID NO: 13) were purchased with HPLC purification from Midland Certified Reagent Company (The Midland Certified Reagent Company, Inc., Midland, Tex., USA). The concentration of each DNA sample was determined spectrophotometrically at 260 nm using the nearest neighbor extinction coefficient.
(§2) Stock solutions of individual dicationic polyaryl compounds were prepared in double distilled water and diluted to working concentrations immediately before use with buffer. All measurements were performed at 20° C. in a 10 mM HEPES buffer (pH 7.4) containing 3 mM EDTA and 50 mM KCl, NaCl, or LiCl. Absorbance spectra were obtained on a Varian Cary 300 BIO UV-visible spectrophotometer (Varian, Inc., Palo Alto, Calif., United States of America) in a quartz cell with a 1 cm pathlength. CD spectra were recorded using a Jasco J-810 spectrapolarimeter (Jasco, Inc., Easton, Md., United States of America) in a 1-cm cell using an instrument scanning speed of 50 nm/min with a response time of 1 s. The spectra were averaged over four scans. […]

human telomeric DNA = assay: Thermal melting (ΔTm) of human telomeric DNA; format: binding; details: HEPES buffer containing 50 mM KCl monitored at 295 nm (data not shown)
[3] = tested on: d[TGGGGT] (SEQ ID NO: 13); assay: CD titration with d[TGGGGT]; format: binding; details: 50 mM KCl, 10 mM K2HPO4, 0.1 mM EDTA, pH 7.0
Text: as §1
as §2, with “All measurements were performed at 20° C. in a 10 mM HEPES buffer (pH 7.4) containing 3 mM EDTA and 50 mM KCl, NaCl, or LiCl.” left out, “scans. A buffer baseline scan was collected in the same cuvette and subtracted from the average scan for each sample.” for “scans.”

## N=C(N)c1ccc(-c2ccc(-c3ccc(C(=N)N)o3)o2)cc1 [Compound 8, 5′-(4-Amidinophenyl)-2,2′-bifuran-5-carboxamidine]
[1]
  pIC50: 7.92
[2]
  exciton splitting in CD spectra (in words): exhibited exciton splitting
Human telomeric DNA
  ΔTm: approximately 10 °C
[3]
  induced CD / exciton splitting (in words): does not show any induced CD or exciton splitting
